Assay results as given in the METLIN SMRT retention time set (Domingo-Almenara et al. 2019).

Experiment: gradient 5% acetonitrile 3 min, to 50% in 2 min, to 85% in 15 min, held 3 min, 100 µL/min
Conditions: column: Zorbax Extend-C18 2.1 x 50 mm; eluents: water / acetonitrile, 0.1% formic acid
Procedure, shortened: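 Over 3 months, pure standards in mixtures of ~100 molecules were run by HPLC coupled to a quadrupole time-of-flight mass spectrometer in positive and negative ionization mode. The column was a Zorbax Extend-C18 (2.1 × 50 mm, 1.8 μm) at 100 μL/min, eluted with water and acetonitrile each holding 0.1% formic acid, with 40 μL dead and 900 μL dwell volumes. Retention time was determined from adduct peaks chosen by software and checked manually.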

| Structure (SMILES) | RP-LC retention time [s] |
| --- | --- |
| Cn1c(=O)c2ccn(CC(=O)N3CCN(c4ccc(F)cc4)CC3)c2n(C)c1=O | 683 |
| CCn1c(C)c(C(=O)C(C)N(CCC(C)C)C(=O)c2ccccc2Cl)c(C)c1C(=O)OC (stereo unspecified) | 1210 |
| CCCN(C(=O)Nc1ccc(CC)cc1)c1nc(-c2ccc(C3CCCCC3)cc2)cs1 | 619 |
| CCOC(=O)C1CCN(C(=O)c2cn(-c3cc(N4CCSCC4)ncn3)cn2)CC1 | 791 |
| Cc1ccc2nc3c(c(C(=O)NC4CCCC4)c2c1)CCC3 | 690 |
| O=C(Cc1cccc(C(F)(F)F)c1)Nc1cccn2c(C3CCC3)nnc12 | 905 |
| Cc1nn(-c2ccc(Cl)cc2)c(C)c1S(=O)(=O)N1CCC(C(=O)N2CCOCC2)CC1 | 810 |
| O=C(CCc1cc2ccccc2[nH]c1=O)N1CCN(C(=O)c2ccco2)CC1 | 638 |
| CCCNC(=O)C1CCN(c2ccc(SCC(=O)Nc3c(C)cccc3Cl)nn2)CC1 | 1160 |
| Cc1ccc(Nc2c(-c3cccc(O)c3)nc3cnccn23)cc1Cl | 829 |
| COC(=O)c1cnn(-c2ccc(C(=O)N3CCCC3)cc2)c1N | 654 |
| O=C(COc1ccc(Cl)cc1Cl)Nc1ccc2c(c1)N(C(=O)C1CC1)CC2 | 987 |
| CCCNc1cc(N2CCC(CCC(=O)NCc3cccc(F)c3)CC2)ncn1 | 696 |
| Cc1ccc(-c2cc3c(=O)n(Cc4noc(-c5ccc6c(c5)OCO6)n4)ccn3n2)c(C)c1 | 1120 |
| CCCNC(=O)COc1ccc(NC(=O)C2CC2)cn1 | 643 |
| O=C(Nc1ccc2c(c1)N(S(=O)(=O)c1ccccc1)CCC2)c1ccccc1[N+](=O)[O-] | 926 |
| CCOc1cc(=O)n2c(c1C(=O)NCCOC)CCCCC2 | 600 |
| CC(C)Cc1cc(-c2nnc3sc(-c4ccccc4F)nn23)n[nH]1 | 889 |
| COc1ccccc1C1(CNC(=O)Nc2cccc(Cl)c2)CCOCC1 | 867 |
| CCCc1nc(-c2ccccc2)oc1CC(=O)Nc1ccc(Br)cc1F | 1150 |
| O=C(CN1CC=C(c2cnn(-c3ccc(F)cc3)c2)CC1)NCC1CCCO1 (stereo unspecified) | 628 |
| CCn1cnc(S(=O)(=O)N2CCCC(C(=O)Nc3ccc(Cl)cc3C)C2)c1 (stereo unspecified) | 795 |

| Structure (SMILES) | RP-LC retention time [s] |
| --- | --- |
| CCCN1C(=O)COc2ccc(-c3noc(-c4cccc(OC)c4)n3)cc21 | 1190 |
| Cc1cc(OCC(=O)N2CCCCC2CCN2CCOCC2)ccc1Cl (stereo unspecified) | 689 |
| COCCn1ccc2nc(C)c(C(=O)N3CCN(c4ccccn4)CC3)cc2c1=O | 554 |
| O=C(Nc1ccccc1Cl)C(=O)c1cn(CC(=O)N2CCCC2)c2ccccc12 | 1070 |
| COc1ccc(S(=O)(=O)N2CCCC(C(=O)NC3CC3)C2)cc1OC (stereo unspecified) | 702 |
| Cc1noc(-c2cccnc2N2CCN(C(c3ccccc3)c3ccccc3)CC2)n1 | 742 |
| COc1cccc(-c2nc(-c3cccc(-c4ccn[nH]4)c3)no2)c1 | 1010 |
| Cc1[nH]c(C(=O)N2CCCC(C(=O)N3CCN(c4ccccc4)CC3)C2)c(C)c1C (stereo unspecified) | 853 |
| Cc1cc(C)cc(NC(=O)Cc2csc3nc(-c4cccc(Cl)c4)cn23)c1 | 1070 |
| COc1ccccc1NC(=O)CSC1CCc2ccccc2NC1=O (stereo unspecified) | 793 |
| Cc1csc(NC(=O)C2CC(=O)N(c3n[nH]c4cccc(F)c34)C2)n1 (stereo unspecified) | 664 |
| Cc1nnc(-c2nnc(NCc3ccc(Cl)cc3)c3ccccc23)o1 | 886 |
| Cc1nnc2ccc(-c3noc(-c4ccc(Br)cc4)n3)cn12 | 1030 |
| COc1ccc(-c2nnc(-c3cccnc3NCCC3=CCCCC3)o2)cc1 | 1330 |
| Cc1cc(N2CCN(C(=O)c3ccc(N(C)C)cc3)CC2)nc2nncn12 | 575 |
| Cc1ccc(CCNC(=O)c2ccc3c(c2)NC(=O)C2CCCCN32)cc1 (stereo unspecified) | 862 |
| Cc1cc(Cc2ccc(S(=O)(=O)N3CCN(C)CC3)cc2)c(=O)[nH]n1 | 575 |
| CN(C(=O)C1CCN(S(=O)(=O)c2cc(C(=O)N3CCCCCC3)cs2)CC1)C1CCCCC1 | 975 |
| CC(CNC(=O)CN1C(=O)CCCc2ccccc21)c1ccccc1 (stereo unspecified) | 836 |
| CNC(=O)Nc1cc(C)n(Cc2ccccc2)n1 | 738 |
| O=C(Nc1cccc(Cl)c1)c1nnc(COCC(=O)N2CCN(c3ccccn3)CC2)s1 | 657 |
| CCC(=O)N1CCc2cc(N3CC(C(=O)NCc4ccc(Cl)cc4)CC3=O)ccc21 (stereo unspecified) | 637 |

| Structure (SMILES) | RP-LC retention time [s] |
| --- | --- |
| COCCCNC(=O)C1CC(=O)N(CCc2c[nH]c3ccc(C)cc23)C1 (stereo unspecified) | 667 |
| CNc1oc(-c2ccco2)nc1S(=O)(=O)c1ccc(F)cc1 | 809 |
| COc1ccc(S(=O)(=O)N2C[C@H]3CN(C(=O)Nc4ccccc4C)C[C@@H](C2)O3)cc1 | 771 |
| COc1ccc(-c2nc(-c3ccc4c(c3)oc(=O)n4C(C)C)no2)cc1 | 1070 |
| Cc1ccc(N2CC(c3nc(-c4cccnc4)no3)CC2=O)cc1Cl (stereo unspecified) | 862 |
| COc1cc2c3c(c1OC)-c1cc4c(cc1CC3(C#N)N(C(=O)c1ccccc1)CC2)OCO4 (stereo unspecified) | 987 |
| O=C(NCc1cccs1)c1nc2ccccn2c1-c1ccsc1 | 830 |
| CC(C)c1nc2cc3c(cc2n1CC(=O)Nc1ccccc1)OCCO3 | 674 |
| O=C(CSc1n[nH]c(-c2ccccc2)n1)NC1CCCCC1 | 784 |
| Cc1cccc(C)c1NC(=O)Cn1cnc2nc(N3CCC(C(=O)NC(C)C)CC3)sc2c1=O | 666 |
| COc1ccc(NC(=O)N2C[C@H]3C[C@H](C2)[C@H]2CCCC(=O)N2C3)cc1OC | 612 |
| CC(C)S(=O)(=O)c1cc2c(cc1NC(=O)c1ccccc1C(F)(F)F)n(C)c(=O)n2C | 853 |
| O=C(NCc1cc(F)cc(F)c1)c1cn(-c2ccc(NC(=O)C3CC3)cn2)cn1 | 763 |
| COc1ccc(-c2nc3cnccn3c2Nc2ccc(C(N)=O)cc2)cc1 | 612 |
| CN(C)C(=O)c1ccc(-n2nc(C(F)(F)F)c3c2CCCC3)cc1 | 882 |
| O=C(C1CCN(Cc2cnn(-c3ccccc3)c2-n2cccc2)CC1)N1CCN(c2ccccc2)CC1 | 750 |
| CSc1cccc(NC(=O)C2CCCN(C(=O)Cc3cccc4ccccc34)C2)c1 (stereo unspecified) | 1040 |
| Cc1c(-c2noc(-c3ccc4c(c3)OCO4)n2)nnn1-c1ccc(F)cc1 | 745 |
| COCCn1c(SCc2nc(-c3ccc(F)cc3)no2)nc2cc3c(cc2c1=O)OCO3 | 1070 |
| Cc1cc(C)cc(C(=O)OC2C[C@H]3CC[C@@H](C2)N3C)c1 (stereo partly specified) | 729 |
| Cc1nnc(-c2cc(NC(=O)Cc3c(F)cccc3Cl)c(C)s2)o1 | 886 |
| Cc1ccccc1-c1nc2cnccn2c1NCCC(=O)NCC(C)C | 636 |
